Experimental data from ChEMBL document CHEMBL1201862, “PubChem BioAssay data set” (2004).
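Following 48 hours of exposure in 96-well plates, responses at five concentrations were used to interpolate endpoints linearly. GI50 is the concentration that inhibits growth by half.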 Active and inactive are the calls of the source. No stated cut-off is given here; in the data, active = GI50 up to about 1.1 µM and inactive = higher.

What was measured:
Test in all cases: NCI-60 cell line screen, 48 h
DLD-1 = test system: DLD-1
SNB-78 = test system: SNB-78
DMS-273 = test system: DMS-273
XF498 = test system: XF498
KM-20L2 = test system: KM-20L2
HOP-18 = test system: HOP-18
DMS-114 = test system: DMS-114
BT-549 = test system: BT-549

COc1cc(C=C2C(=O)NC(=O)NC2=O)cc(OC)c1OC
GI50 (DLD-1): > 100 µM (inactive) | GI50 (SNB-78): > 100 µM (inactive) | GI50 (DMS-273): > 100 µM (inactive) | GI50 (XF498): > 100 µM (inactive) | GI50 (KM-20L2): > 100 µM (inactive) | GI50 (HOP-18): > 100 µM (inactive) | GI50 (DMS-114): > 100 µM (inactive)

COc1ccc(/C=C2\N=C(SC)NC2=O)cc1
GI50 (BT-549): 42.8 µM (inactive)

O=C1c2cc([N+](=O)[O-])ccc2-c2ccc3c4ccc5c6c(ccc(c7ccc1c2c73)c64)C(=O)c1cc([N+](=O)[O-])ccc1-5
GI50 (BT-549): > 100 µM (inactive)

NC(=O)c1csc(-c2ccc(CO)o2)n1
GI50 (BT-549): > 100 µM (inactive)

Cc1cc([N+](=O)[O-])c(C)c(Br)c1C
GI50 (BT-549): > 100 µM (inactive)

C/C(=N\Nc1nc2ccccc2s1)c1ccc2ccccc2n1
GI50 (BT-549): > 100 µM (inactive)

CCN(CC)CC[S+]([O-])c1c2cc(OC)ccc2nc2ccc(OC)cc12 (centres undefined)
GI50 (BT-549): 15.8 µM (inactive)

N#CC1=C2Sc3ccccc3N2[C@H](c2ccccc2)[C@H]2COC(=O)[C@@H]12
GI50 (BT-549): 27.9 µM (inactive)

CCOC(=O)C12CN(C34CC5CC(CC(C5)C3)C4)CC(C(=O)OCC)(C1=O)C(c1ccccc1)OC2c1ccccc1 (centres undefined)
GI50 (DLD-1): > 100 µM (inactive) | GI50 (SNB-78): > 100 µM (inactive) | GI50 (DMS-273): > 100 µM (inactive) | GI50 (XF498): > 100 µM (inactive) | GI50 (KM-20L2): > 100 µM (inactive) | GI50 (DMS-114): 52.2 µM (inactive)

COc1cc(C2SCC(=O)N2c2ccc(Oc3ccc(Cl)cc3)c(Cl)c2)cc(OC)c1OC (centres undefined)
GI50 (BT-549): 16.5 µM (inactive)

CCOC(=O)C(C(CC(=O)OC)NC(=O)OCc1ccccc1)C1(C)OCCO1 (centres undefined)
GI50 (DLD-1): > 100 µM (inactive) | GI50 (DMS-273): > 100 µM (inactive) | GI50 (XF498): 61.4 µM (inactive) | GI50 (KM-20L2): > 100 µM (inactive) | GI50 (DMS-114): > 100 µM (inactive)

C[C@H](O)CCC(=O)c1ccoc1
GI50 (DLD-1): > 100 µM (inactive) | GI50 (SNB-78): > 100 µM (inactive) | GI50 (DMS-273): > 100 µM (inactive) | GI50 (KM-20L2): > 100 µM (inactive) | GI50 (HOP-18): 75 µM (inactive) | GI50 (DMS-114): > 100 µM (inactive)

CCOc1ncn(-c2ccc(NC(=S)NC34CC5CC(CC(C5)C3)C4)cc2)n1
GI50 (BT-549): > 100 µM (inactive)

CCOC(=O)c1c(OCC)[nH]c(=O)c(C(c2ccc(F)cc2)c2c(O)c(C(=O)OCC)c(OCC)[nH]c2=O)c1O
GI50 (BT-549): 9.71 µM (inactive)

CCCCCCCC(CC(=O)NC(CO)C(=O)NC(CO)CC(C)C)OC(=O)CC(CCCCCCC)OC(=O)CC(CCCCCCC)OC1OC(C)C(O)C(OC2OC(C)C(O)C(OC(C)=O)C2O)C1O (centres undefined)
GI50 (BT-549): 6.47 µM (inactive)

COc1cc2oc(-c3ccc4c(c3)OCO4)c(OC)c(=O)c2c(OC)c1O
GI50 (BT-549): 31.4 µM (inactive)

O=C(Cn1c2c(c3ccccc31)CCCC2)N1CCOCC1
GI50 (BT-549): > 100 µM (inactive)

O=C(N[C@@H](c1ccccc1)[C@@H](O)C(=O)OCc1ccc([N+](=O)[O-])cc1)c1ccccc1
GI50 (BT-549): > 100 µM (inactive)

Cc1ccc(N2CCN(CCC(=O)O)CC2)cc1
GI50 (BT-549): > 100 µM (inactive)

O=C(O)CC(NC(=O)/C(=C/c1ccccc1O)NC(=O)c1ccccc1)C(=O)O (centres undefined)
GI50 (BT-549): 57 µM (inactive)

O=S(=O)(/C=C/C=C/[S+]([O-])c1ccccc1)c1ccccc1 (centres undefined)
GI50 (BT-549): > 10 µM (inactive)

Cn1c(=O)c2c3ccccc3n(C)c2n(C)c1=O
GI50 (BT-549): > 100 µM (inactive)

Cc1c(-c2coc(-c3ccc([N+](=O)[O-])cc3)n2)c(=O)n(-c2ccccc2)n1C
GI50 (DLD-1): > 100 µM (inactive) | GI50 (SNB-78): > 100 µM (inactive) | GI50 (DMS-273): > 100 µM (inactive) | GI50 (KM-20L2): > 100 µM (inactive) | GI50 (DMS-114): > 100 µM (inactive)

CCCCOC(=O)C1CN2C(=NC1(C(F)(F)F)C(F)(F)F)Sc1ccccc12 (centres undefined)
GI50 (BT-549): 26.1 µM (inactive)

Clc1ccc(C2ON=C(c3ccccc3)N2C23CC4CC(CC(C4)C2)C3)cc1Cl (centres undefined)
GI50 (BT-549): > 10 µM (inactive)

Cc1cc2ccccc2oc(=O)/c1=N\Nc1ccccc1
GI50 (BT-549): 78.9 µM (inactive)

COc1ccc(/C=C(/c2ccccc2)c2c(C)cc(C)c(/C(=C\c3ccc(OC)cc3)c3ccccc3)c2/N=N/c2cc(C)cc(C)c2)cc1
GI50 (BT-549): 45.3 µM (inactive)

Cc1ccc(NC(=O)OCC(COc2ccc(Cl)cc2Cl)OC(=O)Nc2ccc(C)cc2)cc1 (centres undefined)
GI50 (DLD-1): > 100 µM (inactive) | GI50 (SNB-78): > 100 µM (inactive) | GI50 (DMS-273): > 100 µM (inactive) | GI50 (KM-20L2): > 100 µM (inactive) | GI50 (HOP-18): 69.5 µM (inactive) | GI50 (DMS-114): > 100 µM (inactive)

N#CC1=C(S)N(C2OC(CO)C(O)C(O)C2O)C(c2ccccc2)=CC1c1ccco1 (centres undefined)
GI50 (BT-549): > 100 µM (inactive)

Cn1c2ccccc2c2c(=S)c3ccccc3ccc21
GI50 (BT-549): > 100 µM (inactive)

COc1cc(/C=C/C2=NN(c3cccc(S(=O)(=O)O)c3)C3(C2)SCC(=O)N3c2nc3ccccc3s2)cc(OC)c1OC (centres undefined)
GI50 (BT-549): 42 µM (inactive)

CCOC(=O)CC(=O)Sc1ccccc1
GI50 (DLD-1): 20 µM (inactive) | GI50 (DMS-273): 20.7 µM (inactive) | GI50 (XF498): 34.4 µM (inactive) | GI50 (KM-20L2): 21.2 µM (inactive) | GI50 (HOP-18): > 100 µM (inactive) | GI50 (DMS-114): 14.4 µM (inactive)

COc1ccccc1NC(=O)CC(=O)n1nc(C)c(/N=N/c2ccccc2C(=O)O)c1C
GI50 (DLD-1): > 100 µM (inactive) | GI50 (SNB-78): > 100 µM (inactive) | GI50 (DMS-273): > 100 µM (inactive) | GI50 (XF498): > 100 µM (inactive) | GI50 (KM-20L2): > 100 µM (inactive) | GI50 (DMS-114): > 100 µM (inactive)

CC(=O)O[C@H]1CCC2[C@@H]3CCC4Cc5nc6c(nc5C[C@]4(C)C3CC[C@@]21C)CC1CC[C@@H]2C(CC[C@@]3(C)C2CC[C@@H]3C(C)CCCC(C)C)[C@@]1(C)C6 (some centres undefined)
GI50 (BT-549): > 100 µM (inactive)

C(=N\NC1=NCCN1)/c1cccc2cc3ccncc3nc12
GI50 (BT-549): 16 µM (inactive)

CCOC(=O)Nn1cnnc1Cc1ccccc1
GI50 (BT-549): > 100 µM (inactive)

COc1ccc(/C=C2\CCC(CNc3cc(C)on3)C2=O)cc1 (centres undefined)
GI50 (BT-549): > 78.3 µM (inactive)

CC(/C=N\NC(=S)N(C)C)=N/NC(=S)N(C)C
GI50 (BT-549): 1.93 µM (inactive)

Cc1ccc(/C=N/NS(=O)(=O)c2ccccc2)cc1C
GI50 (DLD-1): > 100 µM (inactive) | GI50 (SNB-78): > 100 µM (inactive) | GI50 (DMS-273): > 100 µM (inactive) | GI50 (XF498): 87.3 µM (inactive) | GI50 (KM-20L2): > 100 µM (inactive) | GI50 (HOP-18): > 100 µM (inactive) | GI50 (DMS-114): 46.1 µM (inactive)
